# Reference: patent US10392366B2, “Azetidine compounds as GPR119 modulators for the treatment of diabetes, obesity, dyslipidemia and related disorders” (SANOFI, priority 2017, dated 2019)
# Target: T1, human GPR119 (Homo sapiens, UniProt Q8TDV5)
# T1 construct: expressed in transfected cells
# T1 sequence (Q8TDV5 1-335): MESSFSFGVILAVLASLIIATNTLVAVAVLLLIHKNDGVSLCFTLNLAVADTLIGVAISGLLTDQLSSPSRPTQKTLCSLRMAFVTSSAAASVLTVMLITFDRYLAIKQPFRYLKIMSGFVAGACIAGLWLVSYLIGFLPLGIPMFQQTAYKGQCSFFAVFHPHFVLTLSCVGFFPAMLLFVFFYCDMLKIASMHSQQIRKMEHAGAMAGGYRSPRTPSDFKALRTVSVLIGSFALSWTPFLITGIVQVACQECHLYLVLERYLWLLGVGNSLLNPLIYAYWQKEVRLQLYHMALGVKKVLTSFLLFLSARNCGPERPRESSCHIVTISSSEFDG
# Test: Functional cellular assay measuring GPR119-mediated cAMP release (HTRF) in HEK-293 cells stably expressing recombinant GPR119
# Type: cell-based
# Settings: cell line expressing human GPR119, 30 minutes at room temperature
# Description: Functional Cellular Assays Measuring GPR119-mediated cAMP Release
# Compounds of the present disclosure, which are agonists of GPR119, were characterized by functional assays measuring the cAMP response of HEK-293 cell lines stably expressing recombinant GPR119 from man, mouse or rat, or by using the hamster cell line HIT-T15 expressing GPR119 endogenously. The cAMP content was determined using a kit based on homogenous time-resolved fluorescence (HTRF) from Cisbio Corp. (cat. no. 62AM4PEC). For preparation, cells were split into T175 culture flasks and grown to near confluency in medium (DMEM/10% FCS for HEK-293 cells, and F-12K medium/10% horse serum/2.5% FCS for HIT-T15 cells, respectively). Medium was then removed and cells washed with PBS lacking calcium and magnesium ions, followed by proteinase treatment with accutase (Sigma-Aldrich, cat. no. A6964). Detached cells were washed and resuspended in assay buffer (1×HBSS; 20 mM HEPES, 0.1% BSA, 2 mM IBMX) and cellular density determined. They were then diluted to 400000 cells/mL and 25 μL-aliquots dispensed to the wells of 96-well plates. For measurement, 25 μL of test compound in assay buffer was added and incubated for 30 minutes at room temperature. After addition of HTRF reagents diluted in lysis buffer, the plates were incubated for 1 hour, followed by measuring the fluorescence ratio at 665 vs. 620 nm. Potency of the agonists was quantified by determining the concentrations that caused 50% of the maximal response/activation (EC50). See Table 6 for exemplary data obtained using the cell line expressing human GPR119.
row,Compound,EC50 [nM]
1,CN(C)C(=O)C1CN(c2ncc(N3CC(C)(C)C(Oc4ccc(OCC(F)(F)F)cc4)C3=O)cn2)C1 (centres unmarked) [Compound 1-19],180
2,Cc1cnc(-c2ccc(O[C@@H]3CCN(c4cnc(N5CC(C(=O)N(C)C)C5)nc4)C3=O)cn2)s1 [Compound 2-05],116
3,C[S+]([O-])C1CN(c2ncc(N3CC[C@@H](Oc4ccc(C(=O)C5CC5)c(F)c4)C3=O)cn2)C1 (some centres unmarked) [Compound 1-40],1820
4,CN(C)C(=O)C1CN(c2ncc(N3CC[C@@H](Oc4ccc(C(=O)C5CC5)c(F)c4)C3=O)cn2)C1 [Compound 2-07],128
5,CN(C)C(=O)C1CN(c2ncc(N3CC[C@@H](Oc4ccc(Oc5ccc(F)cc5)nc4)C3=O)cn2)C1 [Compound 1-23],189
6,CS(=O)(=O)C1CN(c2ncc(N3CCC(Cc4ccc(C(=O)C5CC5)cc4)C3=O)cn2)C1 (centres unmarked) [Compound 1-32],195
7,N#Cc1cc(N2CC[C@@H](Oc3ccc(Oc4ccc(F)cc4)nc3)C2=O)cnc1N1CC(O)C1 [Compound 1-03],255
8,CN(C)C(=O)C1CN(c2ncc(N3CC[C@@H](Oc4ccc(OCC(F)(F)F)nc4)C3=O)cn2)C1 [Compound 1-31],129
9,CS(=O)(=O)C1CN(c2ncc(N3CC[C@H](Oc4ccc(C(=O)C5CC5)cc4)C3=O)cn2)C1 [Compound 1-27],2210
10,CN(C)C(=O)C1CN(c2ncc(N3CC[C@@H](Oc4ccc(OCC(F)(F)F)cc4)C3=O)cn2)C1 [Compound 1-53],351
11,CS(=O)(=O)C1CN(c2ncc(N3CC[C@@H](Oc4ccc(Oc5ccc(F)cc5)nc4)C3=O)cn2)C1 [Compound 1-18],343
12,O=C(O)C1CN(c2ncc(N3CC[C@@H](Oc4ccc(OCC5CC5)nc4)C3=O)cn2)C1 [Compound 3-01],4920
13,CS(=O)(=O)C1CN(c2ncc(N3CC[C@@H](Oc4ccc(C(=O)C5CC5)nc4)C3=O)cn2)C1 [Compound 1-33],664
14,O=C(O)C1CN(c2ncc(N3CC[C@@H](Oc4ccc(OCC(F)(F)F)nc4)C3=O)cn2)C1 [Compound 3-04],9160
15,"C[S+]([O-])C1CN(c2ncc(N3CC[C@@H](Oc4ccc(C(=O)C5CC5)cc4)C3=O)cn2)C1 (single isomer, unassigned) [Compound 1-20]",1970
16,CN(C)C(=O)C1CN(c2ncc(N3CC[C@H](Oc4ccc(OCC(F)(F)F)nc4)C3=O)cn2)C1 [Compound 1-13],257
17,CN(C)C(=O)C1CN(c2ncc(N3CC[C@@H](Oc4ccc(OCC(F)(F)F)nc4)C3=O)cc2C#N)C1 [Compound 1-09],64
18,CN(C)C(=O)C1CN(c2ncc(N3CC[C@@H](Oc4ccc(C(=O)C5CC5)nc4)C3=O)cn2)C1 [Compound 2-04],926
19,CC(C)SC1CN(c2ncc(N3CC[C@@H](Oc4ccc(OCC(F)(F)F)nc4)C3=O)cn2)C1 [Compound 1-29],16
20,NC1CN(c2ncc(N3CC[C@@H](Oc4ccc(OCC(F)(F)F)nc4)C3=O)cn2)C1 [Compound 1-38],9840
21,CN(C)C(=O)C1CN(c2ncc(N3CC(C)(C)C(Oc4ccc(C(=O)C5CC5)cc4)C3=O)cn2)C1 (centres unmarked) [Compound 1-48],752

row,Compound,EC50 [nM]
1,"CS(=O)(=O)C1CN(c2ncc(N3CCC(Cc4ccc(OCC(F)(F)F)nc4)C3=O)cn2)C1 (single isomer, unassigned) [Compound 1-43]",116
2,COC(=O)CC1CN(c2ncc(N3CC[C@@H](Oc4ccc(OCC(F)(F)F)nc4)C3=O)cn2)C1 [Compound 1-30],334
3,CN1CCC2(CN(c3ncc(N4CC[C@@H](Oc5ccc(OCC(F)(F)F)nc5)C4=O)cn3)C2)C1=O [Compound 1-28],290
4,"C[S+]([O-])C1CN(c2ncc(N3CC[C@@H](Oc4ccc(C(=O)C5CC5)cc4)C3=O)cn2)C1 (single isomer, unassigned) [Compound 1-21]",991
5,"CN(C)C(=O)C1CN(c2ncc(N3CCC(Cc4ccc(OCC(F)(F)F)nc4)C3=O)cn2)C1 (single isomer, unassigned) [Compound 1-45]",203
6,CC(C)[S+]([O-])C1CN(c2ncc(N3CC[C@@H](Oc4ccc(OCC(F)(F)F)nc4)C3=O)cn2)C1 (some centres unmarked) [Compound 1-51],93
7,CS(=O)(=O)C1CN(c2ncc(N3CC[C@H](Oc4ccc(OCC(F)(F)F)nc4)C3=O)cn2)C1 [Compound 1-50],321
8,CC(C)S(=O)(=O)C1CN(c2ncc(N3CC[C@@H](Oc4ccc(OCC(F)(F)F)nc4)C3=O)cn2)C1 [Compound 1-37],71
9,"CC(C)[S+]([O-])C1CN(c2ncc(N3CC[C@@H](Oc4ccc(OCC(F)(F)F)nc4)C3=O)cn2)C1 (single isomer, unassigned) [Compound 1-36]",158
10,CN(C)C(=O)C1CN(c2ncc(N3CC[C@@H](Oc4ccc(C(=O)C5CC(F)(F)C5)nc4)C3=O)cn2)C1 [Compound 2-11],470
11,"CC(C)[S+]([O-])C1CN(c2ncc(N3CC[C@@H](Oc4ccc(OCC(F)(F)F)nc4)C3=O)cn2)C1 (single isomer, unassigned) [Compound 1-35]",181
12,"C[S+]([O-])C1CN(c2ncc(N3CCC(Cc4ccc(OCC(F)(F)F)nc4)C3=O)cn2)C1 (single isomer, unassigned) [Compound 1-47]",1630
13,CN(C)C(=O)C1CN(c2ncc(N3CC[C@@H](Oc4ccc(C(=O)C5CC(F)(F)C5)cc4)C3=O)cn2)C1 [Compound 2-08],223
14,CN(C)C(=O)C1CN(c2ncc(N3CC[C@@H](Oc4ccc(C(=O)CCC(F)(F)F)cc4)C3=O)cn2)C1 [Compound 2-09],123
15,"C[S+]([O-])C1CN(c2ncc(N3CC[C@@H](Oc4ccc(OCC(F)(F)F)nc4)C3=O)cn2)C1 (single isomer, unassigned) [Compound 1-25]",292
16,C[S+]([O-])C1CN(c2ncc(N3CC[C@@H](Oc4ccc(OCC(F)(F)F)nc4)C3=O)cn2)C1 (some centres unmarked) [Compound 1-15],248
17,CN(C)C(=O)C1CN(c2ncc(N3CC[C@@H](Oc4ccc(C(=O)c5ccc(F)cc5)nc4)C3=O)cn2)C1 [Compound 2-06],145
18,CS(=O)(=O)C1CN(c2ncc(N3CC[C@@H](Oc4ccc(C(=O)C5CC5)c(F)c4)C3=O)cn2)C1 [Compound 1-39],179
19,CS(=O)(=O)C1CN(c2ncc(N3CC[C@@H](Oc4ccc(OCC(F)(F)F)nc4)C3=O)cn2)C1 [Compound 1-16],58
20,O=C1[C@H](Oc2ccc(OCC(F)(F)F)nc2)CCN1c1cnc(N2CC3(CCNC3=O)C2)nc1 [Compound 1-26],448

# Continued, values first:
row,EC50 [nM],Compound
1,4040,CCNC(=O)C1CN(c2ncc(N3CC[C@@H](Oc4ccc(Oc5ccc(F)cc5)nc4)C3=O)cn2)C1 [Compound 4-03]
2,2060,CNC(=O)C1CN(c2ncc(N3CC[C@@H](Oc4ccc(Oc5ccc(F)cc5)nc4)C3=O)cn2)C1 [Compound 4-01]
3,437,O=C(C1CN(c2ncc(N3CC[C@@H](Oc4ccc(Oc5ccc(F)cc5)nc4)C3=O)cn2)C1)N1CCCC1 [Compound 4-10]
4,245,NC(=O)C1CN(c2ncc(N3CC[C@@H](Oc4ccc(OCC(F)(F)F)nc4)C3=O)cn2)C1 [Compound 4-21]
5,398,CN(CC(N)=O)C(=O)C1CN(c2ncc(N3CC[C@@H](Oc4ccc(OCC(F)(F)F)nc4)C3=O)cn2)C1 [Compound 4-18]
6,665,O=C(C1CN(c2ncc(N3CC[C@@H](Oc4ccc(Oc5ccc(F)cc5)nc4)C3=O)cn2)C1)N1CCC(O)CC1 [Compound 4-06]
7,1520,O=C(NC1CC1)C1CN(c2ncc(N3CC[C@@H](Oc4ccc(Oc5ccc(F)cc5)nc4)C3=O)cn2)C1 [Compound 4-09]
8,122,[2H]C([2H])([2H])N(C(=O)C1CN(c2ncc(N3CC[C@@H](Oc4ccc(OCC(F)(F)F)nc4)C3=O)cn2)C1)C([2H])([2H])[2H] [Compound 4-27]
9,915,O=C(C1CN(c2ncc(N3CC[C@@H](Oc4ccc(Oc5ccc(F)cc5)nc4)C3=O)cn2)C1)N1CC(O)C1 [Compound 4-11]
10,458,NC(=O)OC1CN(c2ncc(N3CC[C@@H](Oc4ccc(OCC(F)(F)F)nc4)C3=O)cn2)C1 [Compound 5-01]
11,6710,NC(=O)CNC(=O)C1CN(c2ncc(N3CC[C@@H](Oc4ccc(Oc5ccc(F)cc5)nc4)C3=O)cn2)C1 [Compound 4-02]
12,1280,CC(=O)N1CCN(C(=O)C2CN(c3ncc(N4CC[C@@H](Oc5ccc(Oc6ccc(F)cc6)nc5)C4=O)cn3)C2)CC1 [Compound 4-08]
13,101,NC(=O)C1CN(c2ccc(N3CC[C@@H](Oc4ccc(OCC(F)(F)F)nc4)C3=O)cn2)C1 [Compound 4-26]
14,663,O=C1[C@H](Oc2ccc(OCC(F)(F)F)nc2)CCN1c1cnc(N2CC(n3cn[nH]c3=O)C2)nc1 [Compound 5-03]
15,1680,CC(C)NC(=O)C1CN(c2ncc(N3CC[C@@H](Oc4ccc(Oc5ccc(F)cc5)nc4)C3=O)cn2)C1 [Compound 4-05]
